Measured values as given in ChEMBL document CHEMBL6092194, “Development of membrane-targeting chalcone derivatives as antibacterial agents against multidrug-resistant bacteria” (Eur J Med Chem, 2024).
Active and inactive are the calls of the source. No cut-off for these calls is given here.

What was measured:
[1] = Hemolytic activity in red blood cells (unknown origin); type: toxicity, cell-based, Erythrocyte
Cell membrane [2] = assay: Induction of inner membrane permeabilization in Escherichia coli ATCC25922 assessed as fold increase in fluorescence intensity at 8 microg/ml incubated for 20 mins by PI uptake assay relative to negative control; type: subcellular; conditions: dose 8.0 µg/ml
Escherichia coli [3] = assay: Bactericidal activity against Escherichia coli ATCC25922 assessed as log reduction in bacterial colony at 8 times of MIC measured after 6 hrs by time-kill kinetics assay; type: functional
Staphylococcus aureus [4] = assay: Antibacterial activity against penicillin-resistant Staphylococcus aureus ATCC31007 by broth microdilution assay; type: functional
Staphylococcus aureus [5] = assay: Bactericidal activity against Staphylococcus aureus ATCC43300 assessed as log reduction in bacterial colony at 8 microg/ml measured upto 24 hrs by time-kill kinetics assay; type: functional; conditions: dose 8 µg/ml
Staphylococcus aureus [6] = assay: Bactericidal activity against Staphylococcus aureus ATCC43300 assessed as elimination of bacteria at 8 microg/ml measured within 6 hrs by time-kill kinetics assay relative to control; type: functional; conditions: dose 8 µg/ml
[7] = Toxicity in ip dosed BALB/c mouse assessed as maximum tolerated dose measured after 7 days; type: organism-based; conditions: in vivo, time 7 day
Escherichia coli [8] = assay: Bactericidal activity against Escherichia coli ATCC25922 in Mueller Hinton Broth; type: functional
Escherichia coli [9] = assay: Antibacterial activity against Escherichia coli ATCC25922 infected in sepsis mouse model assessed as log reduction in bacterial load in kidney at 5 mg/kg pre-infected with bacteria for 1 hrs followed by compound administration at 12 hrs interval for 2 days relative to control; type: functional; conditions: time 2 day
Staphylococcus aureus [10] = assay: Bactericidal activity against Staphylococcus aureus ATCC43300 in presence of 50% plasma; type: functional
Escherichia coli [11] = assay: Bactericidal activity against Escherichia coli ATCC25922 in presence of 50% blood; type: functional
Cell membrane [12] = assay: Disruption of cell membrane in Staphylococcus aureus ATCC43300 assessed as fold increase in protein leakage at 8 microg/ml relative to control; type: subcellular; conditions: dose 8.0 µg/ml
Cell membrane [13] = assay: Induction of inner membrane permeabilization in Escherichia coli ATCC25922 assessed as increase in fluorescence intensity incubated for 20 mins by PI uptake assay; type: subcellular; conditions: dose 0.5-8 µg/ml
Bacillus subtilis = assay: Antibacterial activity against penicillin-susceptible Bacillus subtilis ATCC9372 by broth microdilution assay; type: functional
Staphylococcus aureus [14] = assay: Antibacterial activity against Staphylococcus aureus ATCC43300 infected in sepsis mouse model assessed as log reduction in bacterial load in spleen at 10 mg/kg pre-infected with bacteria for 1 hrs followed by compound administration at 12 hrs interval for 2 days relative to control; type: functional; conditions: time 2 day
Escherichia coli [15] = assay: Induction of morphological changes in Escherichia coli ATCC25922 assessed as disruption of cell membrane by scanning electron microscopic analysis; type: functional, organism-based
Cell membrane [16] = assay: Disruption of cell membrane in Staphylococcus aureus ATCC43300 assessed as increase in intracellular ROS level by measuring fold increase in fluorescence intensity at 8 microg/ml by DCFH-DA staining based fluorescence analysis relative to blank control group; conditions: dose 8.0 µg/ml
[17] = Cytotoxicity against human L02 cells assessed as cell survival at 16 microg/ml by CCK8 assay relative to control; type: toxicity, cell-based; conditions: at 16 µg/mL, read-out: Survival
Staphylococcus aureus [18] = assay: Antibiofilm activity against Staphylococcus aureus ATCC43300 assessed as inhibition of biofilm formation; type: functional, organism-based
Cell membrane [19] = assay: Disruption of cell membrane in Escherichia coli ATCC25922 assessed as increase in intracellular ROS level by measuring fold increase in fluorescence intensity at 8 microg/ml by DCFH-DA staining based fluorescence analysis relative to blank control group; conditions: dose 8.0 µg/ml
[20] = Ratio of MBC for Escherichia coli ATCC25922 measured after 6 hrs in presence of 50% plasma to MBC for Escherichia coli ATCC25922 in Mueller Hinton Broth; type: functional
Staphylococcus aureus [21] = assay: Antibacterial activity against Staphylococcus aureus ATCC43300 infected in sepsis mouse model assessed as log reduction in bacterial load in liver at 5 mg/kg pre-infected with bacteria for 1 hrs followed by compound administration at 12 hrs interval for 2 days relative to control; type: functional; conditions: time 2 day
Cell membrane [22] = assay: Induction of inner membrane permeabilization in Staphylococcus aureus ATCC43300 assessed as fold increase in fluorescence intensity at 8 microg/ml incubated for 20 mins by PI uptake assay relative to negative control; type: subcellular; conditions: dose 8.0 µg/ml
Escherichia coli [23] = assay: Bactericidal activity against Escherichia coli ATCC25922 measured upto 24 hrs by time-kill kinetics assay; type: functional, organism-based; conditions: dose 1-8 µg/ml
Escherichia coli [24] = assay: Antibacterial activity against Escherichia coli ATCC25922 infected in sepsis mouse model assessed as log reduction in bacterial load in liver at 5 mg/kg pre-infected with bacteria for 1 hrs followed by compound administration at 12 hrs interval for 2 days relative to control; type: functional; conditions: time 2 day
Staphylococcus aureus [25] = assay: Bactericidal activity against Staphylococcus aureus ATCC43300 in presence of 50% serum; type: functional
Staphylococcus aureus [26] = assay: Induction of morphological changes in Staphylococcus aureus ATCC43300 assessed as rough appearance of cell membrane by scanning electron microscopic analysis; type: functional, organism-based
Escherichia coli [27] = assay: Antibacterial activity against Escherichia coli ATCC25922 infected in sepsis mouse model assessed as reduction in inflammatory cell infiltration in kidney at 10 mg/kg pre-infected with bacteria for 1 hrs followed by compound administration at 12 hrs interval for 2 days by H and E staining based analysis; type: functional, organism-based; conditions: time 2.0 day
Cell membrane [28] = assay: Disruption of cell membrane in Staphylococcus aureus ATCC43300 assessed as increase in protein leakage; type: subcellular; conditions: dose 1-8 µg/ml
Staphylococcus aureus [29] = assay: Antibacterial activity against Staphylococcus aureus ATCC43300 infected in sepsis mouse model assessed as log reduction in bacterial load in blood at 5 mg/kg pre-infected with bacteria for 1 hrs followed by compound administration at 12 hrs interval for 2 days relative to control; type: functional; conditions: time 2 day
Cell membrane [30] = assay: Induction of cytoplasmic membrane depolarization in Escherichia coli ATCC25922 assessed as fold increase in fluorescence intensity at 8 microg/ml measured within 24 mins by DiSC3(5) dye-based fluorescence assay relative to negative control; type: subcellular; conditions: dose 8.0 µg/ml
Staphylococcus aureus [31] = assay: Antibacterial activity against Staphylococcus aureus ATCC43300 infected in sepsis mouse model assessed as log reduction in bacterial load in spleen at 5 mg/kg pre-infected with bacteria for 1 hrs followed by compound administration at 12 hrs interval for 2 days relative to control; type: functional; conditions: time 2 day
Cell membrane [32] = assay: Induction of cytoplasmic membrane depolarization in Escherichia coli ATCC25922 assessed as increase in fluorescence intensity measured after 24 mins by DiSC3(5) dye-based fluorescence assay; conditions: dose 0.5-8 µg/ml
Staphylococcus aureus [33] = assay: Bactericidal activity against Staphylococcus aureus ATCC43300 in Mueller Hinton Broth; type: functional
Escherichia coli [34] = assay: Antibacterial activity against Escherichia coli ATCC25922 infected in sepsis mouse model assessed as reduction in spleen inflammation at 5 to 10 mg/kg pre-infected with bacteria for 1 hrs followed by compound administration at 12 hrs interval for 2 days by H and E staining based analysis; type: functional, organism-based; conditions: dose 5-10 mg/kg, time 2.0 day
Cell membrane [35] = assay: Induction of cytoplasmic membrane depolarization in Staphylococcus aureus ATCC43300 assessed as increase in fluorescence intensity measured after 24 mins by DiSC3(5) dye-based fluorescence assay; conditions: dose 0.5-8 µg/ml
Staphylococcus aureus [36] = assay: Antibacterial activity against Staphylococcus aureus ATCC43300 infected in sepsis mouse model assessed as reduction in spleen inflammation at 5 to 10 mg/kg pre-infected with bacteria for 1 hrs followed by compound administration at 12 hrs interval for 2 days by H and E staining based analysis; type: functional, organism-based; conditions: dose 5-10 mg/kg, time 2.0 day

CCCCCCOc1cc[n+](CCCOc2ccc(/C=C/C(=O)c3ccc(OCCC[n+]4ccc(OCCCCCC)cc4)cc3)cc2)cc1.[Br-].[Br-]
HC50 [1]: 329 µg/mL | fold change (FC) (Cell membrane [2]): 1.9 | log(activity) (Escherichia coli [3]): 8.31 | MIC (Staphylococcus aureus [4]): 1 µg/mL | log(activity) (Staphylococcus aureus [5]): 7.24 | Activity (Staphylococcus aureus [6]): 100% | MTD at 168 h [7]: 50 mg/kg | MBC (Escherichia coli [8]): 8 µg/mL | log(activity) (Escherichia coli [9]): 1.65 | MBC (Staphylococcus aureus [10]): 4 µg/mL | MIC (Escherichia coli [11]): 32 µg/mL | fold change (FC) (Cell membrane [12]): 7.5 | Activity (Cell membrane [13]): Dose-dependent-effect | MIC (Bacillus subtilis): 1 µg/mL | log(activity) (Staphylococcus aureus [14]): 1.52 | Activity (Escherichia coli [15]): Active | fold change (FC) (Cell membrane [16]): 1.7 | viability at 16 microg/ml [17]: > 83% | Activity (Staphylococcus aureus [18]): Dose-dependent-effect | fold change (FC) (Cell membrane [19]): 1.5 | Ratio [20]: <4 | log(activity) (Staphylococcus aureus [21]): 0.91 | fold change (FC) (Cell membrane [22]): 1.5 | Activity (Escherichia coli [23]): Dose-dependent-effect | log(activity) (Escherichia coli [24]): 2.52 | MBC (Staphylococcus aureus [25]): 16 µg/mL | Activity (Staphylococcus aureus [26]): Active | Activity (Escherichia coli [27]): inactive | Activity (Cell membrane [28]): Dose-dependent-effect | log(activity) (Staphylococcus aureus [29]): 0.8 | fold change (FC) (Cell membrane [30]): 7.5 | log(activity) (Staphylococcus aureus [31]): 1.02 | Activity (Cell membrane [32]): Dose-dependent-effect | MBC (Staphylococcus aureus [33]): 4 µg/mL | Activity (Escherichia coli [34]): Active | Activity (Cell membrane [35]): Dose-dependent-effect | Activity (Staphylococcus aureus [36]): Active
